Here are results for seven compounds from paper PMC7463460, “Structure and Antiparasitic Activity Relationship of Alkylphosphocholine Analogues against Leishmania donovani” (Microorganisms, 2020).

The subject of series [1] is visceral leishmaniasis. As to conditions: VL, 12 months post-treatment; cited from earlier work.
For series [2], the system named is L. donovani LV82 promastigotes. The experiment in a line: Luciferase-expressing promastigote assay, strain LV82. In kind it is cell-based, Leishmania donovani. As to conditions: for Promast: Amast Ratio: LV82; for IC50: Leishmania donovani, 72 h, LV82, 3 days, 25 °C. The method, then:
The anti-leishmanial activity of APC against L. donovani luciferase-expressing promastigotes was determined by adding of the appropriate 100 µL parasite line (10^6 cells/mL) to the wells of a 96-well plate and adding 100 µL medium alone (controls) or 100 µL of APC compound (0.01 µg/mL–6.25 µg/mL, n = 3/treatment). The plate was incubated for 72 h at 25 °C. In combination assays, the additional compound/compounds, at a final concentration of 0.195 or 0.39 µg/mL, was added to the initial APC being tested.
(§1) Luciferin solution (1 µg/mL in 20 µL medium without FCS) was added to the appropriate wells of the 96-well plate at the end of the experiment and the amount of light emitted/well was measured using a luminometer (Biotek Synergy HT, relative light units) using a wavelength/bandwidth of 440/40 nm, or IVIS® imaging (Spectrum Living Image system®, total flux, photons/sec).
(§2) The effect of drug treatment on parasite survival was determined by calculating the mean suppression in the light emitted from the drug-treated experimental sample compared to the mean control value and used to calculate the IC50 using Grafit® software (version 5.0, Erithacus Software, East Grinstead, West Sussex, UK). The effect of drug alone on the viability of uninfected macrophages was determined using the same experimental protocol above, but cell viability was determined using an alamar blue colorimetric assay. At the end of the incubation period, cells’ 10 µL resazurin solution (0.02% w/v) was added to control and drug treated cells and the absorbance of samples was read at 575 and 595 nm. The effect of drug treatment on cell survival, which correlates with the magnitude of dye reduction, was expressed as percentage viability (or alamar blue reduction) and determined using the formula provided in the manufacturer’s protocol % alamar blue reduction=(εoxλ)(Aλ1)−(εoxλ1)(Aλ2)/(εredλ1)(A^′λ2)−(εredλ2)(A^′λ1)x100

In series [3] the test system is L. donovani LV82 intracellular amastigotes. The series can be described thus: Intracellular amastigote assay in bone-marrow-derived macrophages, strain LV82. In kind it is cell-based, Leishmania donovani. As to conditions: for Selectivity Index (SI50): macrophage CC50 / LV82 intracellular amastigote IC50. The protocol: In the macrophage studies, the method described in previous studies was used as follows. […] It is possible that intracellular macrophage parasites could have been at different developmental stages at 24 h post-infection. […] Therefore, we assumed that the effect of compounds on the amastigote stage rather than the promastigotes stage was determined in in vitro macrophage studies.
The plate was incubated for a further 24 h, the medium removed, and each well washed with PBS to eliminate non-internalized parasites, which were monitored microscopically. […] Wells with macrophage and with no drug or promastigotes added were used in control experiments.
as §1
as §2, with “At the end of the incubation period, cells’ 10 µL resazurin solution (0.02% w/v) was added to control and drug treated cells and the absorbance of samples was read at 575 and 595 nm.” left out

The nature of series [4]: Cytotoxicity against uninfected macrophages (alamar blue). It is filed as cell-based, BALB/c mice. As to conditions: BALB/c, mouse, read-out: Macrophage mean IC50 (CC50) (converted). The method, then: as §2
(§3) In the formula, ελ1 and ελ2 are constants representing the molar extinction coefficient of alamar blue at 575 and 595 nm, respectively, in the oxidized (εox) and reduced (εred) forms. Aλ1, Aλ2 and A’λ1, A’λ2 represent absorbance of test and negative control wells at 575 and 595 nm, respectively. The values of % alamar blue reduction (or % viability) were corrected for background values of negative controls containing medium without cells. Percent viability values were used to calculate the IC50 using Grafit® software (version 5.0).
For orientation: The colour change of resazurin is a common sign of viable cells or microbes.

Series [5] relates to bone-marrow-derived macrophages from BALB/c mice. The description is as above. It is filed as cell-based. As to conditions: 3 days. The protocol:
as §2, §3

[6] abbreviates: Leishmania donovani, Macrophage, in Mus musculus, 72 h, LV82, intracellular in BALB/c macrophages, 3 days, 37 °C.
Where [7] appears, read: uninfected bone-marrow-derived macrophages.
[8] abbreviates: LV82, intracellular in BALB/c macrophages, 3 days, 37 °C.

Several values for one entry are separate records, joined by “and”; a condition that tells them apart may be missing. Identical values can stand only once. Like-named read-outs stand apart in the source and are kept apart here.

With `C[C@@H]1[C@H](O)[C@@H](C)/C=C/C=C/C=C/C=C/C=C/C=C/C=C/[C@H](O[C@@H]2O[C@H](C)[C@@H](O)[C@H](N)[C@@H]2O)C[C@@H]2O[C@](O)(C[C@@H](O)C[C@@H](O)[C@H](O)CC[C@@H](O)C[C@@H](O)CC(=O)O[C@H]1C)C[C@H](O)[C@H]2C(=O)O` [AMB, amphotericin B], the cure rate in series [1] is 93.7%.
As a reminder, the IC50 is the concentration that gives 50% inhibition. For `CC(C)CCC(CCC(C)C)OP(=O)([O-])OCC[N+](C)(C)C` [APC11PC, 2,8-Dimethyl-5-Nonylphosphocholine], in series [2], the “Promast: Amast Ratio” value is recorded as greater than 33.60; the 50% inhibitory concentration (IC50) was > 6.25 µg/mL and > 18.6 µM. In addition, in series [3] (setting [6]), the half-inhibitory concentration (IC50) is 0.19 µg/mL and 550 nM. Besides, in series [3], the “Selectivity Index (SI50)” value stood at 335.56. For the same compound, the IC50 at 3 days in series [4] (setting [7]) is 61.9 µg/mL and 185 µM.
`C=CCCCCCCCCCOP(=O)([O-])OCC[N+](C)(C)C` [APC11UPC, 10-Undecylenyl-1-phosphocholine]: in series [2], the “Promast: Amast Ratio” value was 135.34; the IC50 was 1.8 µg/mL and 5.37 µM. Further, in series [3] (setting [6]), the IC50 is 0.01 µg/mL and 40 nM. In series [3], the “Selectivity Index (SI50)” value is given as 4025.00. The IC50 at 3 days in series [4] (setting [7]) is 54 µg/mL and 161 µM.
Take `CCCCCCCCCCCCOP(=O)([O-])OCCCCCC[N+](C)(C)C` [APC12P6C]: in series [2], the “Promast: Amast Ratio” value was found to be 33.33; the 50% inhibitory concentration (IC50) was 33.5 µg/mL and 82.2 µM. Moreover, the half-inhibitory concentration (IC50) in series [3] (setting [6]) was 1.01 µg/mL and 2.47 µM. In addition, in series [3], the “Selectivity Index (SI50)” value was 14.01. Besides, the IC50 at 3 days in series [4] (setting [7]) is 14.1 µg/mL and 34.6 µM.
As for `CCCCCCCCCCCC[N+](C)(C)CCCCCCCCCCCC` [DAB, didodecyldimethyl ammonium bromide], in series [2], the “Promast: Amast Ratio” value was 0.79; the IC50 is 0.04 µg/mL and 91 nM. In series [3] (setting [6]), the half-inhibitory concentration (IC50) is 0.06 µg/mL and 119 nM. In addition, the “Selectivity Index (SI50)” value in series [3] was determined as 1503.45. Also, the concentration for half-maximal inhibition (IC50) at 3 days in series [4] is 82.8 µg/mL and 179 µM.
`CCCCCCCCCCCCOP(=O)(O)O` [PO, mono –n-dodecyl phosphate]: in series [2], the “Promast: Amast Ratio” value is greater than 3.12; the half-maximal inhibitory concentration (IC50) was > 6.25 µg/mL and > 25.1 µM. The “activity against L. donovani compared to controls” value in series [2] (LV82 promastigotes and amastigotes) is “inactive”. In addition, the IC50 in series [3] (setting [6]) is > 2 µg/mL and > 8.02 µM. Besides, in series [3], the “Selectivity Index (SI50)” value is recorded as greater than 50.00. Further, the IC50 at 3 days in series [4] (setting [7]) was 100 µg/mL and 401 µM.
dodecylamine [DA]: in series [2], the “Promast: Amast Ratio” value stood at 0.18. The “Amastigote mean IC50” value in series [3] (setting [8]) is listed as 0.47 ± 0.00 µg/mL. In addition, the values for the half-inhibitory concentration (IC50) in series [3] (setting [8]) and in series [5] (read-out: Macrophage mean IC50 (CC50) (converted)) were 2.54 µM and 203 µM, respectively. For the same compound, the “Selectivity Index (SI50)” value in series [3] was 79.88. The “Macrophage mean IC50 (CC50)” value in series [5] was found to be 37.60 ± 0.01 µg/mL.
